Source: US20230144211A1, “ANTIFOLATE LINKER-DRUGS AND ANTIBODY-DRUG CONJUGATES” (Byondis B.V., priority 2020, published 2023)

Assays:
Test in all cases: In vitro cell viability assay (CellTiter-Glo, 6 days)
SK-BR-3 cells = assay type: cell-based, human; details: Homo sapiens, SK-BR-3, 24 h, free antifolate drugs, Table 1d
Method in brief: (§1)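 Cells plated overnight, then given 10 serial log10 dilutions of free drug (1% final DMSO) or ADC in medium. After 6 days, CellTiter-Glo luminescence expressed as % of untreated control. IC50 taken as the midpoint of a 4-parameter logistic fit; mean of at least one experiment in duplicate.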

BxPC-3 cells = assay type: cell-based; details: Homo sapiens, free antifolate drugs, Table 1d
Experimental: (§2) FaDu, BxPC-3, HeLa, MV4-11, and RAJI cell lines were obtained from Deutsche Sammlung von Mikroorganismen und Zellkulturen (Leipzig, Germany). Jurkat NucLight Red cells were obtained from Essen BioScience Inc. (Ann Arbor, Mich., USA). SK-BR-3 and SK-OV-3 cells were cultured in McCoys 5A medium (Lonza; Walkersville, Md., USA) supplemented with 10% v/w Fetal Bovine Serum (FBS), Heat-inactivated (HI) (Gibco-Life Technologies; Carlsbad, Calif.) and 80 U/mL Pen/Strep (Gibco-Life Technologies), at 37° C. in a humidified incubator under 5% CO2 atmosphere. SW-620 cells were similarly maintained in RPMI 1640 medium (Lonza), containing 10% v/w FBS HI and 80 U/mL Pen/Strep. A-549 cells were similarly maintained in F-12K Nutrient Mixture (1×) (Gibco-Life Technologies) media supplemented with 80 U/mL Pen/Strep and 5% v/w FBS, which was Qualified (Q) (Gibco-Life Technologies). BT-474 and AU-565 cells were similarly maintained in RPMI 1640 medium (Lonza), containing 10% v/w FBS, which was Qualified (Q) (Gibco-Life Technologies), and 80 U/mL Pen/Strep. […] Jurkat NucLight Red cells were similarly maintained in RPMI 1640 medium (Lonza), containing 10% v/w FBS HI, 80 U/mL Pen/Strep and 0.5 μg/mL Puromycin (Gibco-Life Technologies). FaDu cells were cultured in EMEM medium (Lonza) supplemented with 10% v/w FBS HI (Gibco-Life Technologies), 1× GlutaMAX (Gibco-Life Technologies), and 80 U/mL Pen/Strep (Gibco-Life Technologies), at 37° C. in a humidified incubator under 5% CO2 atmosphere.
(§3) After an overnight incubation, 10 serial log 10 dilutions of the free drugs were made in DMSO (Sigma-Aldrich). These free drug dose-response curves were 10-times further diluted in complete growth medium. For the ADCs according to the invention 10 serial log 10 dilutions were made in complete growth medium. 10 μL of a composition comprising a free drug or an ADC according to the invention was added to the assay plate (final DMSO content for free drugs was 1%). […] […] Percentage cell survival was calculated by dividing the measured luminescence for each free drug or ADC according to the concentration with the average mean of untreated cells (1% or 0.1% DMSO control (for free drugs) or 100% complete growth medium (for ADCs)) multiplied by 100.
(§4) Curves were fitted by non-linear regression using the sigmoidal dose-response equation with variable slope (four parameters) using curve-fitting software (GraphPad Prism, version 9.4.0 for Windows, GraphPad, San Diego, Calif. or Electronic Laboratory Notebook (ELN) add-in BioAssay, version 19.1.0.0218, Perkin Elmer, Waltham, Mass.). Relative IC50 values were calculated as the concentration that gives a response halfway between bottom and top of the curve, when using a 4-parameter logistic fit. Data were reported as mean IC50 value of at least one experiment performed in duplicate.

FaDu cells = assay type: cell-based; details: Homo sapiens, free antifolate drugs, Table 1d
Experimental: as §2, §3, §4

[1] = tested on: Jurkat NucLight Red cells; assay type: cell-based, human; details: Homo sapiens, Jurkat, 24 h, free antifolate drugs, Table 1d
Method in brief: as §1

Jurkat Clone E6-1 cells = assay type: cell-based; details: Homo sapiens, free antifolate drugs, Table 1d
Experimental: Human tumor cell lines SK-BR-3, SW-620, A-549, BT-474, Jurkat Clone E6-1, AU-565, and SK-OV-3 were obtained from American Type Culture Collection (Rockville, Md., USA). FaDu, BxPC-3, HeLa, MV4-11, and RAJI cell lines were obtained from Deutsche Sammlung von Mikroorganismen und Zellkulturen ([…], Germany). Jurkat NucLight Red cells were obtained from Essen BioScience Inc. (Ann Arbor, Mich., USA). SK-BR-3 and SK-OV-3 cells were cultured in McCoys 5A medium (Lonza; Walkersville, Md., USA) supplemented with 10% v/w Fetal Bovine Serum (FBS), Heat-inactivated (HI) (Gibco-Life Technologies; Carlsbad, Calif.) and 80 U/mL Pen/Strep (Gibco-Life Technologies), at 37° C. in a humidified incubator under 5% CO2 atmosphere. […]
Cells in complete growth medium were plated in 96-well plates (90 μL/well) and incubated at 37° C., 5% CO2 at the following cell densities: 6500 SK-BR-3, 4000 SW-620, 2500 A-549, 10000 BT-474, 3000 Jurkat Clone E6-1, 5000 AU-565, 1250 FaDu, 1250 BxPC-3, 1000 HeLa, 7500 MV4-11, 1000 RAJI, 3000 Jurkat NucLight Red, and 4000 SK-OV-3 cells per well. […] Percentage cell survival was calculated by dividing the measured luminescence for each free drug or ADC according to the concentration with the average mean of untreated cells (1% or 0.1% DMSO control (for free drugs) or 100% complete growth medium (for ADCs)) multiplied by 100. […]

- IC50 (SK-BR-3 cells): 0.86 nM
- IC50 (BxPC-3 cells): 0.78 nM
- IC50 [1]: 0.66 nM
- IC50 (Jurkat Clone E6-1 cells): 0.78 nM
Structure (SMILES): Nc1ccc(C(=O)NCCC[C@H](NC(=O)c2ccc(CCc3cnc4nc(N)nc(N)c4n3)cc2O)C(=O)O)c(-c2nnn[nH]2)c1 [XT162, (S)-5-(4-Amino-2-(1H-tetrazol-5-yl)benzamido)-2-(4-(2-(2,4-diaminopteridin-6-yl)ethyl)-2-hydroxybenzamido)pentanoic acid]
- IC50 (FaDu cells): 0.44 nM
